Measurements as given in ChEMBL document CHEMBL5727515, “5-[3-[piperzin-1-yl]-3-oxo-propyl]-imidazolidine-2,4-dione derivatives as ADAMTS 4 and 5 inhibitors for treating E.G. osteoarthritis” (2020).

Experiments:
[1] = molecular target: Disintegrin and metalloproteinase domain-containing protein 17 (Homo sapiens, UniProt P78536); assay: hTACE assay: The basis for the assay is the cleavage of the substrate 5FAM-LAQAVRSSSRK-5TAMRA (SEQ ID No 3) (Anaspec, custom 34891) by human TACE (R&D SYSTEMS INC., Cat#930-ADB).For the dose response (10 point), 4 μL of a dilution series of compound (2 mM highest concentration, 1/5 dilution in DMSO further diluted 1 in 10 in water, corresponding to a final highest concentration of 20 μM), is …
[2] = molecular target: T1, A disintegrin and metalloproteinase with thrombospondin motifs 5 (Homo sapiens, UniProt Q9UNA0); assay: hADAMTS-5 assay: The basis for the assay is the cleavage of the substrate TBIS-1 (5 FAM-TEGEARGSVILLK (5TAMRA)K-NH2) (SEQ ID NO: 2) by human ADAMTS-5.For the dose response (10 point), 4 μL of a dilution series of compound (2 mM highest concentration, 1/5 dilution in DMSO further diluted 1 in 10 in water, corresponding to a final highest concentration of 20 μM), is transferred to 384 well Fluotrac …
T1 sequence (Q9UNA0 whole entry): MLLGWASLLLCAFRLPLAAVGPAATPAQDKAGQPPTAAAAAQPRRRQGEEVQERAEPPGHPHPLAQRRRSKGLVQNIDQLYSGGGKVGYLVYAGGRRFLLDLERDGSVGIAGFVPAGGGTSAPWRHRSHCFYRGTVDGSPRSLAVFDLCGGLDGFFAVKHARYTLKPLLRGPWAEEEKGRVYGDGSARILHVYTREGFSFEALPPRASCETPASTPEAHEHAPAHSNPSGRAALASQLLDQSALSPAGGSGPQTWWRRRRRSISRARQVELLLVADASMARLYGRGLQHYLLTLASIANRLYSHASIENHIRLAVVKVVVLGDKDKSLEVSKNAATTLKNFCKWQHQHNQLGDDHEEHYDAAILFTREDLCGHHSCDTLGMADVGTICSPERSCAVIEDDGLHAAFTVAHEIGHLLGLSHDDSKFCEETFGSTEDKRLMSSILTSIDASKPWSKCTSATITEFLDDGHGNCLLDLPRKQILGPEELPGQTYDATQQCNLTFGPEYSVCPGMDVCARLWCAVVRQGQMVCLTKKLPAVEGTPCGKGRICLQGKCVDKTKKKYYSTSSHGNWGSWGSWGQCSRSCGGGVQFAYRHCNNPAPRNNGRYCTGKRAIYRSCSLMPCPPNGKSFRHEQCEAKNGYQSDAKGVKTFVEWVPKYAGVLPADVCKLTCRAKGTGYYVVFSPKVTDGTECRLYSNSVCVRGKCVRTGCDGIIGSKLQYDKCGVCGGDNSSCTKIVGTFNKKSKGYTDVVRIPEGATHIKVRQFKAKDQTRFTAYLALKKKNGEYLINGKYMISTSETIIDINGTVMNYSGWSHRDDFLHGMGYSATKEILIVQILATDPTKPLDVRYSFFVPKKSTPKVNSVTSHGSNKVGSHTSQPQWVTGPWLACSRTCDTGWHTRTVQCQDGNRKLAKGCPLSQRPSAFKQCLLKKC

Collagenase 3 = Collagenase 3 (Homo sapiens, UniProt P45452); assay: Human MMP13 is preactivated by incubated the enzyme in the same buffer complemented with 1 mM freshly prepared p-Aminophenylmercuric acetate (AMPA) for 1 h at 37° C.The reaction is initiated by adding to the assay plate 390 MMP FRET Substrate I (10 μL, 2.5 μM) in the same buffer.Finally, the fluorescence is read on the Envision (Perkin Elmer) after an incubation of 45 min at room temperature (Excitation 485 nm, Emission 530).
[3] = molecular target: Matrix metalloproteinase-14 (Homo sapiens, UniProt P50281); assay: hMMP14 assay: The basis for the assay is the cleavage of the substrate 390 MMP FRET Substrate I (Anaspec Cat# AS-27076) by human MMP14 (Biomol, Cat#SE-259).For the dose response (10 point), 4 μL of a dilution series of compound 2 mM highest concentration, 1/5 dilution in DMSO further diluted 1 in 10 in water, corresponding to a final highest concentration of 20 μM), is transferred to 384 well …

Disintegrin and metalloproteinase domain-containing protein 17, sequence (P78536 whole entry, the tested form may be a part): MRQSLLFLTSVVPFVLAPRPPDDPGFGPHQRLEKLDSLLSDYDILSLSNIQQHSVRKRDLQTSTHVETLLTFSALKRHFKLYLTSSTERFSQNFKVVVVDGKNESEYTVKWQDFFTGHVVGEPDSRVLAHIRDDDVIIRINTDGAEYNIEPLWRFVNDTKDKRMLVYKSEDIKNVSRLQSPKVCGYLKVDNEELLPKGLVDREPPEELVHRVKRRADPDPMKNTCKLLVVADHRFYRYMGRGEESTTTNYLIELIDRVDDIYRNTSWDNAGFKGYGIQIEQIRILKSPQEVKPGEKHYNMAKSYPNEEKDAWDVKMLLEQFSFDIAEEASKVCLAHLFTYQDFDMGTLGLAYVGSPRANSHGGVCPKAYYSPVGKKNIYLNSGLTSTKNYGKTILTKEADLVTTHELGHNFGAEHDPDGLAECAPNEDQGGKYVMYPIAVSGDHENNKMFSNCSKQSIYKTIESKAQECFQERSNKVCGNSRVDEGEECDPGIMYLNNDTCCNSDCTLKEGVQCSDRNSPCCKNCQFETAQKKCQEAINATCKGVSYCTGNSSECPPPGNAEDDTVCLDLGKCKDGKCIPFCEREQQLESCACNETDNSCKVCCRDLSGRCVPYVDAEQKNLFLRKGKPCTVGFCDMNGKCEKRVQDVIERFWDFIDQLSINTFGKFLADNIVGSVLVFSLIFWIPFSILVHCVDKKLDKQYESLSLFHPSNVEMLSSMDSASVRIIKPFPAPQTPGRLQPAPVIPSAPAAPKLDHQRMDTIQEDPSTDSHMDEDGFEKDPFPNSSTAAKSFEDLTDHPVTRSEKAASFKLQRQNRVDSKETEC

IC50 [1] [nM]	IC50 [2] [nM]	IC50 (Collagenase 3) [nM]	IC50 [3] [nM]	SMILES
> 100	> 100	> 100		COc1cc(C2CCN(C(=O)CCC3(C)NC(=O)NC3=O)CC2)c(C)cc1Cl (stereo not drawn)
	> 100	> 100		COc1c(Cl)cc(Cl)cc1C1CCN(C(=O)CC[C@@]2(C)NC(=O)NC2=O)CC1
		> 100		COc1cc(C2CCN(C(=O)CC[C@H]3NC(=O)NC3=O)CC2)cc(Cl)c1Cl

Second part, the compound before the results:

SMILES	IC50 [1] [nM]	IC50 [2] [nM]	IC50 (Collagenase 3) [nM]	IC50 [3] [nM]
COc1cc(C2CCN(C(=O)CC[C@@]3(C)NC(=O)NC3=O)CC2)cc(Cl)c1Cl			> 100	
COc1cc(C2CCN(C(=O)CC[C@H]3NC(=O)NC3=O)CC2)cc(OC)c1F		> 100	> 100	> 100
COc1c(Cl)cc(Cl)cc1C1CCN(C(=O)CC[C@H]2NC(=O)NC2=O)CC1	> 100	> 100	> 100	
